Where “and” joins values, the source holds several entries; their conditions need not be identical. Identical values can stand only once. Inconclusive results and toxic doses are left out.
Test system: CD2F1 mice, L1210 leukemia ip, survival T/C
Experiment: NCI In Vivo Anticancer Drug Screen. Data for tumor model L1210 Leukemia (intraperitoneal) in CD2F1 (CDF1) mice
Details: higher = longer survival
Summary of the method: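 Transplantable tumor in mice; compound-treated vs vehicle-treated groups. Read-out = treated/control ratio of the measured endpoint.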

[1] = endpoint: mean survival time, dose: 6.25 mg/kg/injection, schedule: Q01DX009 (ip), vehicle: saline with Tween-80
[2] = endpoint: mean survival time, dose: 12.5 mg/kg/injection, schedule: Q01DX009 (ip), vehicle: saline with Tween-80
[3] = endpoint: mean survival time, dose: 25.0 mg/kg/injection, schedule: Q01DX009 (ip), vehicle: saline with Tween-80
[4] = endpoint: mean survival time, dose: 200.0 mg/kg/injection, schedule: Q04DX003 (ip), vehicle: saline with Tween-80
[5] = endpoint: mean survival time, dose: 50.0 mg/kg/injection, schedule: Q04DX002 (ip), vehicle: saline with Tween-80
[6] = endpoint: mean survival time, dose: 100.0 mg/kg/injection, schedule: Q04DX002 (ip), vehicle: saline with Tween-80
[7] = endpoint: mean survival time, dose: 200.0 mg/kg/injection, schedule: Q04DX002 (ip), vehicle: saline with Tween-80
[8] = endpoint: mean survival time, dose: 100.0 mg/kg/injection, schedule: Q01DX009 (ip), vehicle: saline with Tween-80
[9] = endpoint: mean survival time, dose: 200.0 mg/kg/injection, schedule: Q01DX009 (ip), vehicle: saline with Tween-80
[10] = endpoint: mean survival time, dose: 400.0 mg/kg/injection, schedule: Q01DX009 (ip), vehicle: saline with Tween-80
[11] = endpoint: mean survival time, dose: 100.0 mg/kg/injection, schedule: Q04DX003 (ip), vehicle: saline with Tween-80
[12] = endpoint: mean survival time, dose: 400.0 mg/kg/injection, schedule: Q04DX003 (ip), vehicle: saline with Tween-80

Compound: COc1cccc2c1C(=O)c1c(O)c3c(c(O)c1C2=O)C[C@@](O)(/C(C)=N\NC(=O)CO)C[C@@H]3OC1CC(N)C(O)C(C)O1 (stereo partly specified)
- T/C (endpoint: mean survival time, dose: 0.25 mg/kg/injection, schedule: Q01DX009 (ip), vehicle: water): 103 % of control
- T/C (endpoint: mean survival time, dose: 0.5 mg/kg/injection, schedule: Q01DX009 (ip), vehicle: water): 101 % of control
- T/C (endpoint: mean survival time, dose: 0.78 mg/kg/injection, schedule: Q01DX009 (ip), vehicle: water): 107 % of control
- T/C (endpoint: mean survival time, dose: 1.0 mg/kg/injection, schedule: Q01DX009 (ip), vehicle: water): 98 % of control
- T/C (endpoint: mean survival time, dose: 1.0 mg/kg/injection, schedule: Q04DX003 (ip), vehicle: saline with Tween-80): 115 % of control
- T/C (endpoint: mean survival time, dose: 1.56 mg/kg/injection, schedule: Q01DX009 (ip), vehicle: water): 107 % of control
- T/C (endpoint: mean survival time, dose: 2.0 mg/kg/injection, schedule: Q01DX009 (ip), vehicle: water): 106 % of control
- T/C (endpoint: mean survival time, dose: 2.0 mg/kg/injection, schedule: Q04DX003 (ip), vehicle: saline with Tween-80): 113 % of control
- T/C (endpoint: mean survival time, dose: 3.13 mg/kg/injection, schedule: Q01DX009 (ip), vehicle: water): 119 % of control
- T/C (endpoint: mean survival time, dose: 4.0 mg/kg/injection, schedule: Q01DX009 (ip), vehicle: water): 111 % of control
- T/C (endpoint: mean survival time, dose: 4.0 mg/kg/injection, schedule: Q04DX003 (ip), vehicle: saline with Tween-80): 117 % of control
- T/C (endpoint: mean survival time, dose: 8.33 mg/kg/injection, schedule: Q04DX003 (ip), vehicle: saline): 121 % of control
- T/C (endpoint: mean survival time, dose: 12.5 mg/kg/injection, schedule: Q01DX009 (ip), vehicle: saline): 101 % of control
- T/C (endpoint: mean survival time, dose: 12.5 mg/kg/injection, schedule: Q01DX009 (ip), vehicle: water): 115 % of control

Compound: CN(C)c1ccc(/C=C/C(=O)Cc2ccccc2)cc1
- T/C (endpoint: mean survival time, dose: 100.0 mg/kg/injection, schedule: Q01DX001 (ip), vehicle: saline sonified): 100 % of control

Compound: BrCCOc1ccccc1
- T/C (endpoint: mean survival time, dose: 100.0 mg/kg/injection, schedule: Q04DX003 (ip), vehicle: other): 108 % of control
- T/C (endpoint: mean survival time, dose: 200.0 mg/kg/injection, schedule: Q04DX003 (ip), vehicle: other): 97 % of control
- T/C (endpoint: mean survival time, dose: 400.0 mg/kg/injection, schedule: Q04DX003 (ip), vehicle: other): 86 % of control

Compound: CCCCCCCCCCCCCCCC[n+]1cccc(C(=O)NCO)c1
- T/C [1]: 102 % of control
- T/C [2]: 95 % of control
- T/C [3]: 95 % of control
- T/C (endpoint: mean survival time, dose: 50.0 mg/kg/injection, schedule: Q04DX003 (ip), vehicle: saline with Tween-80): 103 % of control
- T/C [4]: 103 % of control

Compound: C[N+]1(C)CCC2=CC3C=CC2C1C=C3 (stereo unspecified)
- T/C (endpoint: median survival time, dose: 25.0 mg/kg/injection, schedule: Q04DX002 (ip), vehicle: saline with Tween-80): 100 % of control
- T/C (endpoint: median survival time, dose: 50.0 mg/kg/injection, schedule: Q04DX002 (ip), vehicle: saline with Tween-80): 100 % of control

Compound: CCOC(=O)c1c(-c2ccccc2)csc1NC(=O)CBr
- T/C (endpoint: mean survival time, dose: 75.0 mg/kg/injection, schedule: Q01DX001 (ip), vehicle: saline): 106 % of control
- T/C (endpoint: mean survival time, dose: 150.0 mg/kg/injection, schedule: Q01DX001 (ip), vehicle: saline): 101 % of control
- T/C (endpoint: mean survival time, dose: 300.0 mg/kg/injection, schedule: Q01DX001 (ip), vehicle: saline): 98 % of control

Compound: CC1(C(=O)c2ccccc2)CC2C=CC1C2 (stereo unspecified)
- T/C [5]: 94 % of control
- T/C [6]: 108 % of control
- T/C [7]: 94 % of control

Compound: CCOC(=O)C(O)c1ccccc1 (stereo unspecified)
- T/C [8]: 101 % of control
- T/C [9]: 96 % of control
- T/C [10]: 93 % of control

Compound: CCCNC(=O)C1C2CCC(CC2)C1C(=O)NCCC (stereo unspecified)
- T/C [11]: 98 % of control
- T/C [4]: 98 % of control
- T/C [12]: 95 % of control

Compound: COc1cc(/C=N\NC(C)=O)cc(OC)c1OC
- T/C [11]: 101 % of control
- T/C [4]: 95 % of control

Compound: O=C(OCC1OC(n2ccn(C3OC(COC(=O)c4ccccc4)C(OC(=O)c4ccccc4)C3OC(=O)c3ccccc3)c2=S)C(OC(=O)c2ccccc2)C1OC(=O)c1ccccc1)c1ccccc1 (stereo unspecified)
- T/C (endpoint: mean survival time, dose: 12.5 mg/kg/injection, schedule: Q01DX005 (ip), vehicle: water): 102 % of control
- T/C (endpoint: mean survival time, dose: 25.0 mg/kg/injection, schedule: Q01DX005 (ip), vehicle: water): 104 % of control
- T/C (endpoint: mean survival time, dose: 50.0 mg/kg/injection, schedule: Q01DX005 (ip), vehicle: water): 94 % of control
- T/C (endpoint: mean survival time, dose: 100.0 mg/kg/injection, schedule: Q01DX005 (ip), vehicle: water): 94 % of control
- T/C (endpoint: mean survival time, dose: 200.0 mg/kg/injection, schedule: Q01DX005 (ip), vehicle: water): 94 % of control

Compound: CN(C)S(=O)(=O)C1(c2ccccc2)CCCC1
- T/C [11]: 102 % of control
- T/C [4]: 105 % of control
- T/C [12]: 100 % of control

Compound: Cc1cc(NCCCCCCCNc2cc(C)nc3cc(N)ccc23)c2ccc(N)cc2n1
- T/C (endpoint: mean survival time, dose: 0.78 mg/kg/injection, schedule: Q01DX009 (ip), vehicle: saline with Tween-80): 123 % of control and 110 % of control
- T/C (endpoint: mean survival time, dose: 1.56 mg/kg/injection, schedule: Q01DX009 (ip), vehicle: saline with Tween-80): 121 % of control and 123 % of control
- T/C [1]: 153 % of control
- T/C [2]: 157 % of control and 183 % of control
- T/C [3]: 104 % of control
- T/C (endpoint: median survival time, dose: 0.78 mg/kg/injection, schedule: Q01DX009 (ip), vehicle: distilled water + Tween-80): 119 % of control
- T/C (endpoint: median survival time, dose: 0.78 mg/kg/injection, schedule: Q01DX009 (ip), vehicle: other): 113 % of control
- T/C (endpoint: median survival time, dose: 1.56 mg/kg/injection, schedule: Q01DX009 (ip), vehicle: distilled water + Tween-80): 121 % of control
- T/C (endpoint: median survival time, dose: 1.56 mg/kg/injection, schedule: Q01DX009 (ip), vehicle: other): 120 % of control
- T/C (endpoint: median survival time, dose: 6.25 mg/kg/injection, schedule: Q01DX009 (ip), vehicle: other): 150 % of control
- T/C (endpoint: median survival time, dose: 6.25 mg/kg/injection, schedule: Q01DX009 (ip), vehicle: water): 157 % of control
- T/C (endpoint: median survival time, dose: 12.5 mg/kg/injection, schedule: Q01DX009 (ip), vehicle: distilled water + Tween-80): 167 % of control
- T/C (endpoint: median survival time, dose: 12.5 mg/kg/injection, schedule: Q01DX009 (ip), vehicle: other): 170 % of control
- T/C (endpoint: median survival time, dose: 12.5 mg/kg/injection, schedule: Q01DX009 (ip), vehicle: water): 180 % of control

Compound: CN(C)C(=O)Sc1ccc(S(=O)(=O)F)c(Cl)c1Cl
- T/C [6]: 100 % of control
- T/C [7]: 100 % of control
- T/C (endpoint: mean survival time, dose: 400.0 mg/kg/injection, schedule: Q04DX002 (ip), vehicle: saline with Tween-80): 103 % of control

Compound: COc1ccc2c(c1)C1CCCC(=O)C1N2 (stereo unspecified)
- T/C [8]: 97 % of control
- T/C [9]: 91 % of control
- T/C [10]: 91 % of control

Compound: C1CC[N-]CC1.C1CC[N-]CC1.[Cl][Pt+2]([Cl])([Cl])[Cl]
- T/C [11]: 97 % of control
- T/C [4]: 92 % of control
- T/C [12]: 93 % of control

Compound: NC(=O)CC(N)C(=O)O (stereo unspecified)
- T/C (endpoint: mean survival time, dose: 50.0 mg/kg/injection, schedule: Q01DX009 (ip), vehicle: other): 102 % of control
- T/C (endpoint: mean survival time, dose: 50.0 mg/kg/injection, schedule: Q01DX009 (ip), vehicle: saline): 97 % of control
- T/C (endpoint: mean survival time, dose: 100.0 mg/kg/injection, schedule: Q01DX009 (ip), vehicle: other): 98 % of control
- T/C (endpoint: mean survival time, dose: 100.0 mg/kg/injection, schedule: Q01DX009 (ip), vehicle: saline): 101 % of control
- T/C (endpoint: mean survival time, dose: 200.0 mg/kg/injection, schedule: Q01DX009 (ip), vehicle: other): 98 % of control
- T/C (endpoint: mean survival time, dose: 200.0 mg/kg/injection, schedule: Q01DX009 (ip), vehicle: saline): 103 % of control
- T/C (endpoint: mean survival time, dose: 400.0 mg/kg/injection, schedule: Q01DX009 (ip), vehicle: other): 104 % of control
- T/C (endpoint: mean survival time, dose: 400.0 mg/kg/injection, schedule: Q01DX009 (ip), vehicle: saline): 103 % of control
- T/C (endpoint: mean survival time, dose: 800.0 mg/kg/injection, schedule: Q01DX009 (ip), vehicle: other): 104 % of control
- T/C (endpoint: mean survival time, dose: 800.0 mg/kg/injection, schedule: Q01DX009 (ip), vehicle: saline): 100 % of control
- T/C (endpoint: mean survival time, dose: 1600.0 mg/kg/injection, schedule: Q01DX009 (ip), vehicle: other): 98 % of control
- T/C (endpoint: mean survival time, dose: 1600.0 mg/kg/injection, schedule: Q01DX009 (ip), vehicle: saline): 101 % of control

Compound: CC(C)(CO)Nc1ccc([N+](=O)[O-])cc1
- T/C (endpoint: mean survival time, dose: 100.0 mg/kg/injection, schedule: Q01DX001 (ip), vehicle: saline with Tween-80): 104 % of control
- T/C (endpoint: mean survival time, dose: 200.0 mg/kg/injection, schedule: Q01DX001 (ip), vehicle: saline with Tween-80): 106 % of control
- T/C (endpoint: mean survival time, dose: 400.0 mg/kg/injection, schedule: Q01DX001 (ip), vehicle: saline with Tween-80): 107 % of control

Compound: COc1ccc2c(ccc3cc(OC)ccc32)c1
- T/C [5]: 93 % of control
- T/C [6]: 100 % of control
- T/C [7]: 93 % of control

Compound: Cc1cscc(C)c1=S
- T/C (endpoint: mean survival time, dose: 100.0 mg/kg/injection, schedule: Q04DX003 (ip), vehicle: saline sonified): 98 % of control
- T/C (endpoint: mean survival time, dose: 200.0 mg/kg/injection, schedule: Q04DX003 (ip), vehicle: saline sonified): 98 % of control
- T/C (endpoint: mean survival time, dose: 400.0 mg/kg/injection, schedule: Q04DX003 (ip), vehicle: saline sonified): 100 % of control
